Experimental data taken from patent publication US20030181520A1, “Methods of reversing and preventing cardiovascular pathologies” (priority 2001, published 2003).

What was measured:
VCAM-1 = VCAM-1 gene expression inhibition; type: cell-based; details: compound A at low micromolar concentrations, probucol at very high concentrations
QTc interval = assay: Clinical trial: QTc interval; type: in vivo, human
[1] = tested on: reference vessels (coronary arteries that were not targets of angioplasty); assay: Clinical trial: IVUS analysis of lumen volume of reference vessels (non-PCI site); type: in vivo, human; details: for lumen volume change of reference vessels: IVUS, non-PCI site
Protocol: (§1) The primary endpoint of the trial was the size of the lumenal area (coronary artery opening), as measured by intravascular ultrasound (IVUS), six months after angioplasty. […] Angiographic restenosis was also assessed using a standard definition of restenosis as measured by quantitative coronary angiography (QCA). […] An IVUS analysis of reference vessels (blood vessels of coronary arteries that were not targets of angioplasty procedures) was also carried out. The data indicated lumen volumes increased for patients who received either of the top two doses of Compound A. In contrast, patients on placebo had decreased lumen volumes, consistent with the expected progression of atherosclerosis.
(§2) IVUS examinations were conducted at 30 Mhz using 3.5 French CVIS catheters. All IVUS examinations were preceded by IC Ntg 0.3 mg. Results of these examinations are found in FIGS. 1-6.

[2] = Anti-inflammatory activity (preclinical comparison)
[3] = Antioxidant activity (preclinical comparison)
stented arteries = assay: Clinical trial: angiographic restenosis by quantitative coronary angiography (QCA); type: in vivo, human; details: for rate of angiographic restenosis in stented arteries: QCA; for restenosis rate reduction: relative to placebo (37.5 percent); for restenosis after PCI: treatment 2 weeks before and 4 weeks after PCI
Protocol: as §1
(§3) Treatment of the above was given 2 weeks prior to and 4 weeks after PCI. PCI was performed on greater than or equal to 1 native artery with greater than or equal to 1 de novo lesion of greater than or equal to 50%. All PCI procedures (with or without stent placement) and post-PCI management were performed according to recognized current clinical practice. 0.3 mg of nitroglycerin(Ntg) intracoronary (IC) were administered at every angiogram. Quantitative Coronary Angiography (QCA) measurements were taken prior to-PCI, 10 minutes post-PCI, and final follow-up (approximately 6 months).

[4] = tested on: coronary artery opening at the site of angioplasty; assay: Clinical trial: minimal luminal area by intravascular ultrasound (IVUS) six months after angioplasty; type: in vivo, human; details: for mean minimal luminal area: IVUS six months after angioplasty
Protocol: as §1
A study was conducted to determine whether Compound A reduces restenosis as assessed by intravascular ultrasound (IVUS) when administered for 2 weeks before and 4 weeks after percutaneous coronary intervention (PCI) with or without stent placement. A multi-center, double-blind placebo-controlled randomized trail with 5 treatment groups:
as §3, §2

MCP-1 = MCP-1 gene expression inhibition; type: cell-based; details: compound A at low micromolar concentrations, probucol at very high concentrations

SMILES | inhibition of VCAM-1 gene expression (VCAM-1) | prolongation of the QTc interval (QTc interval) | lumen volume change of reference vessels ([1]; 70 mg once a day) [mm3] | lumen volume change of reference vessels ([1]; 140 mg once a day) | lumen volume change of reference vessels ([1]; 280 mg once a day) | lumen dimensions of the reference segments ([1]; in contrast to probucol) | activity as an anti-inflammatory agent [2] | antioxidant properties [3] | rate of angiographic restenosis in stented arteries (stented arteries; combined Compound A arms (70, 140, 280 mg once a day)) [%] | restenosis rate reduction (stented arteries; combined Compound A arms) [%] | restenosis after PCI (stented arteries) | mean minimal luminal area ([4]; 70 mg once a day for six weeks) [mm2] | mean minimal luminal area ([4]; 140 mg once a day for six weeks) [mm2] | mean minimal luminal area ([4]; 280 mg once a day for six weeks, p<0.05 vs. placebo) [mm2] | luminal area at the site of angioplasty ([4]; at two weeks, p<0.05) | inhibition of MCP-1 gene expression (MCP-1) | lumen volume change of reference vessels ([1]; probucol 500 mg twice a day) [mm3] | restenosis rate reduction (stented arteries; probucol 500 mg twice a day) [%] | rate of angiographic restenosis in stented arteries (stented arteries; probucol 500 mg twice a day) [%] | mean minimal luminal area ([4]; probucol 500 mg twice a day for six weeks) [mm2]
CC(C)(Sc1cc(C(C)(C)C)c(O)c(C(C)(C)C)c1)Sc1cc(C(C)(C)C)c(OC(=O)CCC(=O)O)c(C(C)(C)C)c1 [Compound A, Butanedioic acid, mono [4-[[1-[[3,5-bis(1,1-dimethylethyl)-4-hydroxyphenyl]thio]-1-methylethyl]thio]2,6-bis(1,1-dimethylethyl)phenyl]ester] | very active inhibitor | without causing prolongation | −2.4 | +3.5 mm3 | +1.8 mm3 | surprising improvement | consistently very effective | equipotent to probucol | 26.0 | 31 | reduce restenosis | 2.75 | 3.17 | 3.36 | dose response improvement | very active inhibitor |  |  |  | 
CC(C)(Sc1cc(C(C)(C)C)c(O)c(C(C)(C)C)c1)Sc1cc(C(C)(C)C)c(O)c(C(C)(C)C)c1 [Probucol, probucol, reference compound] | inactive |  |  |  |  |  |  |  |  |  | reduce restenosis |  |  |  |  | inactive | −0.2 | 32 | 25.5 | 3.69
